The values that follow come from DBAASP.

Values after ≈ are worked out from the molar mass of the structure shown. Values joined by “and” are separate entries in the source; they are usually repeats but may differ in a detail not shown here. Identical values can stand only once.

Holding throughout (experiment): ≥ marks a high value that may be exact or a test limit, other limits are often not marked, values filed in µg/mL are converted to µM
In assay [1] the test system is Staphylococcus aureus ΔmprFpRBsyn.
The subject of assay [2] is Staphylococcus aureus ATCC 43300.
For assay [3], the system named is Brucella abortus 9.49 (per-).
The test system of a further assay is Staphylococcus aureus.
The test system of assay [4] is Bordetella bronchiseptica CUN 11844-99.
The subject of assay [5] is Escherichia coli ATCC 23716.
Assay [6] deals with Escherichia coli ATCC 25922.
Assay [7] concerns Acinetobacter baumannii ATCC 19606.
The test system of assay [8] is Pseudomonas aeruginosa CUN 4158-02.
In a further assay the test system is Yersinia pestis KIM pYV.
For assay [9], the system named is Staphylococcus aureus ΔmprF.

The term MIC denotes the least concentration at which growth counts as inhibited. Read a low MIC as greater potency.

With `CC[C@H](C)[C@H](NC(=O)[C@H](CCCCN)NC(=O)[C@H](CCCCN)NC(=O)[C@H](CO)NC(=O)[C@@H](NC(=O)CNC(=O)[C@H](CCCN=C(N)N)NC(=O)[C@H](CC(C)C)NC(=O)[C@@H](NC(=O)[C@@H](N)CCCCN)[C@@H](C)CC)C(C)C)C(=O)N[C@@H](CCSC)C(=O)N[C@@H](CCCN=C(N)N)C(=O)N[C@H](C(=O)N[C@@H](Cc1ccccc1)C(=O)N[C@@H](CC(C)C)C(=O)N[C@@H](CCCN=C(N)N)C(=O)N[C@@H](CCCN=C(N)N)C(=O)N[C@H](C(=O)N[C@@H](CC(C)C)C(=O)N[C@H](C(=O)NCC(=O)N[C@@H](CCCCN)C(=O)N[C@@H](CCCCN)C(N)=O)[C@@H](C)O)[C@@H](C)CC)[C@@H](C)O` [KILRGVSKKIMRTFLRRILTGKK], the MIC was 1.46 µM (≈ 4 µg/mL) in assay [1]; 23.3 µM (≈ 64 µg/mL) in assay [2]; 1.46 µM (≈ 4 µg/mL) in assay [3]; 5.83 µM (≈ 16 µg/mL) in the assay with Staphylococcus aureus; 0.729 µM (≈ 2 µg/mL) in assay [4]; 2.92 µM and 6.93 µM in assay [5]. In addition, the minimum inhibitory concentration (MIC) in assay [6] is 1.46 µM (≈ 4 µg/mL); in [7], 1.46 µM (≈ 4 µg/mL); in assay [8], 1.46 µM (≈ 4 µg/mL); in the assay on Yersinia pestis KIM pYV, 5.83 µM (≈ 16 µg/mL); in assay [9] it was 1.46 µM (≈ 4 µg/mL).
